Consider 24 molecules from ChEMBL document CHEMBL1135258, “Substrate spectrum of tyrocidine thioesterase probed with randomized peptide N-acetylcysteamine thioesters” (Bioorg Med Chem Lett, 2002).

Assay [1] deals with T1, Thioesterase GrsT homolog tycF (Brevibacillus brevis) (UniProt O30412).
T1 sequence (whole entry): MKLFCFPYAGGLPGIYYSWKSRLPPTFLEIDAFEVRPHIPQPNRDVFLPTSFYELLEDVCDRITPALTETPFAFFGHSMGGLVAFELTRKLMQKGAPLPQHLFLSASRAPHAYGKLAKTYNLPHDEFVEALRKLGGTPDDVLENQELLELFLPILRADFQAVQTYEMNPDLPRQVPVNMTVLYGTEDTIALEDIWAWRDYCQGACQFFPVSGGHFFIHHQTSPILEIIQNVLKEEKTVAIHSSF
In words: Apparent kinetic constant (Kcat) for tyrocidine thioesterase amplified from Bacillus brevis (ATCC8185).

The target of assay [2] is T1, Thioesterase GrsT homolog tycF (Brevibacillus brevis). Nature of the assay: Catalytic efficiency (Kcat/Km) was determined. On the set-up: unit not given here.

Where a SMILES comes first, the peptide text is derived from it. [ ]: non-standard residue; d: D form. The star is where a group is joined. SCH2CH2NHAc = CC(=O)NCCS*; Orn = NCCC[C@H](N)C(=O)O

Consider `CC(=O)NCCSC(=O)[C@H](CC(C)C)NC(=O)[C@H](CCCN)NC(=O)[C@@H](NC(=O)[C@H](Cc1ccc(O)cc1)NC(=O)[C@H](CCC(N)=O)NC(=O)[C@@H](NC(=O)[C@@H](Cc1ccccc1)NC(=O)[C@H](Cc1ccccc1)NC(=O)[C@@H]1CCCN1C(=O)[C@H](N)Cc1ccccc1)C(C)C)C(C)C`, for which the k cat in assay [1] was 0.12 s⁻¹. The Ratio in assay [2] worked out at 0.29.
With `CC(=O)NCCSC(=O)[C@H](CC(C)C)NC(=O)[C@H](CCCN)NC(=O)[C@@H](NC(=O)[C@H](Cc1ccc(O)cc1)NC(=O)[C@H](CCC(N)=O)NC(=O)[C@H](CC(N)=O)NC(=O)[C@H](CCC(N)=O)NC(=O)[C@H](Cc1ccccc1)NC(=O)[C@@H]1CCCN1C(=O)[C@H](N)Cc1ccccc1)C(C)C`, in assay [1], the k cat was 0.117 s⁻¹. Further, the Ratio in assay [2] is 0.43.
For the molecule `CC(=O)NCCSC(=O)[C@H](CC(C)C)NC(=O)[C@H](CCCN)NC(=O)[C@@H](NC(=O)[C@H](Cc1ccc(O)cc1)NC(=O)[C@H](CCC(N)=O)NC(=O)[C@H](CC(N)=O)NC(=O)[C@H](Cc1ccccc1)NC(=O)[C@H](Cc1ccccc1)NC(=O)[C@@H]1CCCN1C(=O)[C@H](N)Cc1ccccc1)C(C)C`, the k cat in assay [1] was found to be 0.105 s⁻¹. Besides, the Ratio in assay [2] stood at 1.3.
For `CC(=O)NCCSC(=O)[C@H](CC(C)C)NC(=O)[C@H](CCCN)NC(=O)[C@@H](NC(=O)[C@H](Cc1ccc(O)cc1)NC(=O)[C@H](CC(C)C)NC(=O)[C@H](CC(N)=O)NC(=O)[C@@H](Cc1ccccc1)NC(=O)[C@H](Cc1ccccc1)NC(=O)[C@@H]1CCCN1C(=O)[C@H](N)Cc1ccccc1)C(C)C`, in that order: 0.717 s⁻¹ and 0.32.
For `CC[C@H](C)[C@H](NC(=O)[C@H](Cc1ccccc1)NC(=O)[C@@H]1CCCN1C(=O)[C@H](N)Cc1ccccc1)C(=O)N[C@@H](CC(N)=O)C(=O)N[C@@H](CCC(N)=O)C(=O)N[C@@H](Cc1ccc(O)cc1)C(=O)N[C@H](C(=O)N[C@@H](CCCN)C(=O)N[C@@H](CC(C)C)C(=O)SCCNC(C)=O)C(C)C`, in that order: 0.183 s⁻¹ and 0.33.
For `CC(=O)NCCSC(=O)[C@H](CC(C)C)NC(=O)[C@H](CCCN)NC(=O)[C@H](CC(N)=O)NC(=O)[C@H](Cc1ccc(O)cc1)NC(=O)[C@H](CCC(N)=O)NC(=O)[C@H](CC(N)=O)NC(=O)[C@@H](Cc1ccccc1)NC(=O)[C@H](Cc1ccccc1)NC(=O)[C@@H]1CCCN1C(=O)[C@H](N)Cc1ccccc1`, in that order: 0.2 s⁻¹ and 0.22.
Regarding `CC(=O)NCCSC(=O)[C@H](CC(C)C)NC(=O)[C@H](CCCN)NC(=O)[C@@H](NC(=O)[C@H](Cc1ccc(O)cc1)NC(=O)[C@H](CCC(N)=O)NC(=O)[C@H](CC(N)=O)NC(=O)[C@@H](NC(=O)[C@H](Cc1ccccc1)NC(=O)[C@@H]1CCCN1C(=O)[C@H](N)Cc1ccccc1)[C@@H](C)O)C(C)C`, the k cat in assay [1] was 0.135 s⁻¹. In assay [2], the Ratio is 0.26.
For `CC(=O)NCCSC(=O)[C@H](CC(C)C)NC(=O)[C@H](CCCN)NC(=O)[C@@H](NC(=O)[C@H](Cc1ccc(O)cc1)NC(=O)[C@H](CCC(N)=O)NC(=O)[C@H](CC(N)=O)NC(=O)[C@H](CC(=O)O)NC(=O)[C@H](Cc1ccccc1)NC(=O)[C@@H]1CCCN1C(=O)[C@H](N)Cc1ccccc1)C(C)C`, in that order: 0.233 s⁻¹ and 0.058.
For the molecule `CC(=O)NCCSC(=O)[C@H](CC(C)C)NC(=O)[C@H](CCCN)NC(=O)[C@@H](NC(=O)[C@H](Cc1ccc(O)cc1)NC(=O)[C@H](CCC(N)=O)NC(=O)[C@H](CC(N)=O)NC(=O)[C@@H](Cc1ccccc1)NC(=O)[C@H](Cc1ccccc1)NC(=O)[C@@H]1CCCN1C(=O)[C@H](N)Cc1ccccc1)C(C)C` (stereo in doubt; form 1), the k cat in assay [1] came to 0.733 s⁻¹. Also, the Ratio in assay [2] was determined as 4.78.
For the molecule `CC(=O)NCCSC(=O)[C@H](CC(C)C)NC(=O)[C@H](CCCN)NC(=O)[C@H](CCC(N)=O)NC(=O)[C@H](Cc1ccc(O)cc1)NC(=O)[C@H](CCC(N)=O)NC(=O)[C@H](CC(N)=O)NC(=O)[C@@H](Cc1ccccc1)NC(=O)[C@H](Cc1ccccc1)NC(=O)[C@@H]1CCCN1C(=O)[C@H](N)Cc1ccccc1`, the k cat in assay [1] stood at 0.233 s⁻¹. The Ratio in assay [2] was found to be 0.22.
For the molecule `CC(=O)NCCSC(=O)[C@H](CC(C)C)NC(=O)[C@H](CCCN)NC(=O)[C@@H](NC(=O)[C@H](Cc1ccc(O)cc1)NC(=O)[C@@H](NC(=O)[C@H](CC(N)=O)NC(=O)[C@@H](Cc1ccccc1)NC(=O)[C@H](Cc1ccccc1)NC(=O)[C@@H]1CCCN1C(=O)[C@H](N)Cc1ccccc1)C(C)C)C(C)C`, in assay [1], the k cat amounted to 0.16 s⁻¹. In addition, in assay [2], the Ratio stood at 0.18.
Consider `CC(=O)NCCSC(=O)[C@H](CC(C)C)NC(=O)[C@H](CCCN)NC(=O)[C@@H](NC(=O)[C@H](Cc1ccc(O)cc1)NC(=O)[C@H](CCC(N)=O)NC(=O)[C@H](CC(N)=O)NC(=O)[C@@H](Cc1ccccc1)NC(=O)[C@H](Cc1ccccc1)NC(=O)[C@H](C)NC(=O)[C@H](N)Cc1ccccc1)C(C)C` (H-[dF]AF[dF]NQYV[Orn]L-SCH2CH2NHAc), for which, in assay [1], the k cat came to 0.117 s⁻¹. Besides, the Ratio in assay [2] was determined as 0.23.
Regarding `CC(=O)NCCSC(=O)[C@H](CC(C)C)NC(=O)[C@H](CCCN)NC(=O)[C@@H](NC(=O)[C@H](Cc1ccc(O)cc1)NC(=O)[C@H](CCC(N)=O)NC(=O)[C@H](CC(N)=O)NC(=O)[C@H](CCCN=C(N)N)NC(=O)[C@H](Cc1ccccc1)NC(=O)[C@@H]1CCCN1C(=O)[C@H](N)Cc1ccccc1)C(C)C`, the k cat in assay [1] came to 0.2 s⁻¹. Besides, in assay [2], the Ratio came to 0.51.
For `CC(=O)NCCSC(=O)[C@H](CC(C)C)NC(=O)[C@H](CCCN)NC(=O)[C@@H](NC(=O)[C@H](Cc1ccc(O)cc1)NC(=O)[C@H](CCC(N)=O)NC(=O)[C@H](CC(N)=O)NC(=O)[C@H](CS)NC(=O)[C@H](Cc1ccccc1)NC(=O)[C@@H]1CCCN1C(=O)[C@H](N)Cc1ccccc1)C(C)C`, in that order: 0.11 s⁻¹ and 0.25.
With `CC(=O)NCCSC(=O)[C@H](CC(C)C)NC(=O)[C@H](CCCN)NC(=O)[C@@H](NC(=O)[C@H](Cc1ccc(O)cc1)NC(=O)[C@H](CCC(N)=O)NC(=O)[C@H](CC(N)=O)NC(=O)[C@H](CC(C)C)NC(=O)[C@H](Cc1ccccc1)NC(=O)[C@@H]1CCCN1C(=O)[C@H](N)Cc1ccccc1)C(C)C`, the k cat in assay [1] amounted to 0.138 s⁻¹. Further, in assay [2], the Ratio amounted to 0.28.
For `CC(=O)NCCSC(=O)[C@H](CC(C)C)NC(=O)[C@H](CCCN)NC(=O)[C@@H](NC(=O)[C@H](Cc1ccc(O)cc1)NC(=O)[C@H](CCC(N)=O)NC(=O)[C@H](CC(N)=O)NC(=O)[C@@H](Cc1ccccc1)NC(=O)[C@H](Cc1ccccc1)NC(=O)[C@@H]1CCCN1C(=O)[C@H](N)Cc1ccccc1)C(C)C` (stereo in doubt; form 2), in assay [1], the k cat was determined as 0.55 s⁻¹. Moreover, the Ratio in assay [2] came to 2.65.
For `CC(=O)NCCSC(=O)[C@H](CC(C)C)NC(=O)[C@H](CCCN)NC(=O)[C@@H](NC(=O)[C@H](Cc1ccc(O)cc1)NC(=O)[C@H](CCC(N)=O)NC(=O)[C@H](CC(N)=O)NC(=O)[C@H](CCCCN)NC(=O)[C@H](Cc1ccccc1)NC(=O)[C@@H]1CCCN1C(=O)[C@H](N)Cc1ccccc1)C(C)C`, in that order: 0.233 s⁻¹ and 0.92.
For `CC(=O)NCCSC(=O)[C@H](CC(C)C)NC(=O)[C@H](CCCN)NC(=O)[C@@H](NC(=O)[C@H](Cc1ccc(O)cc1)NC(=O)[C@H](CCC(N)=O)NC(=O)[C@H](CC(N)=O)NC(=O)[C@@H](Cc1ccccc1)NC(=O)[C@H](Cc1ccccc1)NC(=O)[C@H](CC(N)=O)NC(=O)[C@H](N)Cc1ccccc1)C(C)C`, in that order: 0.117 s⁻¹ and 0.084.
Take `CC(=O)NCCSC(=O)[C@H](CC(C)C)NC(=O)[C@H](CCCN)NC(=O)[C@@H](NC(=O)[C@H](Cc1ccc(O)cc1)NC(=O)[C@H](CCC(N)=O)NC(=O)[C@H](CC(N)=O)NC(=O)[C@H](Cc1c[nH]cn1)NC(=O)[C@H](Cc1ccccc1)NC(=O)[C@@H]1CCCN1C(=O)[C@H](N)Cc1ccccc1)C(C)C`: in assay [1], the k cat was 0.2 s⁻¹. Also, in assay [2], the Ratio worked out at 0.15.
For the molecule `CC(=O)NCCSC(=O)[C@H](CC(C)C)NC(=O)[C@H](CCCN)NC(=O)[C@@H](NC(=O)[C@H](Cc1ccc(O)cc1)NC(=O)[C@H](CCC(N)=O)NC(=O)[C@H](CC(N)=O)NC(=O)[C@H](C)NC(=O)[C@H](Cc1ccccc1)NC(=O)[C@@H]1CCCN1C(=O)[C@H](N)Cc1ccccc1)C(C)C`, the k cat in assay [1] was determined as 0.183 s⁻¹. Also, in assay [2], the Ratio turned out to be 0.6.
For `CC(=O)NCCSC(=O)[C@H](CC(C)C)NC(=O)[C@H](CCCN)NC(=O)[C@@H](NC(=O)[C@H](CC(N)=O)NC(=O)[C@H](CCC(N)=O)NC(=O)[C@H](CC(N)=O)NC(=O)[C@@H](Cc1ccccc1)NC(=O)[C@H](Cc1ccccc1)NC(=O)[C@@H]1CCCN1C(=O)[C@H](N)Cc1ccccc1)C(C)C`, in that order: 0.333 s⁻¹ and 2.63.
As to `CC(=O)NCCSC(=O)[C@H](CC(C)C)NC(=O)[C@H](CCCN)NC(=O)[C@@H](NC(=O)[C@H](Cc1ccc(O)cc1)NC(=O)[C@H](CCC(N)=O)NC(=O)[C@H](CC(N)=O)NC(=O)[C@@H]1CCCN1C(=O)[C@H](Cc1ccccc1)NC(=O)[C@@H]1CCCN1C(=O)[C@H](N)Cc1ccccc1)C(C)C`, the k cat in assay [1] is 0.25 s⁻¹. Also, the Ratio in assay [2] was found to be 0.11.
For `CC(=O)NCCSC(=O)[C@H](CC(C)C)NC(=O)[C@H](CCCN)NC(=O)[C@@H](NC(=O)[C@H](Cc1ccc(O)cc1)NC(=O)[C@H](CCC(N)=O)NC(=O)[C@H](CC(N)=O)NC(=O)[C@H](Cc1c[nH]c2ccccc12)NC(=O)[C@H](Cc1ccccc1)NC(=O)[C@@H]1CCCN1C(=O)[C@H](N)Cc1ccccc1)C(C)C`, in that order: 0.12 s⁻¹ and 0.95.
On to `CC(=O)NCCSC(=O)[C@H](CC(C)C)NC(=O)[C@H](CCCN)NC(=O)[C@@H](NC(=O)[C@H](Cc1ccc(O)cc1)NC(=O)[C@H](CCC(N)=O)NC(=O)[C@H](CC(N)=O)NC(=O)[C@H](CCC(=O)O)NC(=O)[C@H](Cc1ccccc1)NC(=O)[C@@H]1CCCN1C(=O)[C@H](N)Cc1ccccc1)C(C)C`, for which the k cat in assay [1] was determined as 0.11 s⁻¹. Moreover, in assay [2], the Ratio is 0.57.
